The results in this text go back to a melting point compilation (Tetko et al.; mined from patent text by program, amines drawn as free bases though some values may be those of a salt).

The structures appear in SMILES notation. Residues, ends and D or L forms follow the SMILES beside them. *: point of attachment. Tos = Cc1ccc(S(=O)(=O)*)cc1 Where only a bound is given, the exact number is not on record here.

Usually melting point stands for the temperature of the solid-liquid transition. `COc1nc2cccccc-2n1` yielded a melting point of 94 °C.

In the case of `CC(C)(C)c1cc(-c2nc(C(Cl)(Cl)Cl)no2)cc(C(C)(C)C)c1O`, the melting point lay in the range of 100 to 102 °C.

Regarding `OC(c1ccccc1)C1CCN1C(c1ccccc1)c1ccccc1` (stereo not given), the melting point is 87.5 to 88.5 °C.

The molecule `CSc1cc(Oc2cccc(C(F)(F)F)c2)nc(C(=O)NC(C)C)c1` had a melting point of 66 to 69 °C.

`OCc1ccc2cnn(-c3ccnc(N[C@H]4CC[C@H](O)CC4)n3)c2c1` yielded a melting point of 216 to 218 °C.

For the molecule `O=C(O)c1ccc(Cl)c2c1OC(F)(F)O2`, the melting point worked out at 185 °C.

`CC12CCC3c4ccc(Cl)cc4CCC3C1CCC2NCc1cccc(C(F)(F)F)c1` (stereo not given): the melting point lay in the range of 97 to 101 °C.

In turn, `CC(C)(C)OC(=O)N1CCN(c2cccc3ccoc23)CC1` showed a melting point of 98 to 100 °C.

In turn, `O=C(c1cc(Br)ccc1[N+](=O)[O-])C(Br)C(Br)c1ccc(Br)cc1` (stereo not given) came in with a melting point of 200 to 201 °C.

For `CN(NCc1ccccc1)c1cnn(-c2cccc(C(F)(F)F)c2)c(=O)c1`, the melting point is 89 to 90 °C.

Take `CC(C)n1c(=O)nc(-c2ccc3ccccc3c2)c2cc3c(cc21)OCO3`: the melting point lay in the range of 213 to 215 °C.

Molecule `CCCn1cccc1C(N)=S` had a melting point of 88 to 91 °C.

Take `CC(O)c1cc(I)c(O)c(Cl)n1` (stereo not given): the melting point lay in the range of 114 to 116 °C.

Turning to `CSc1ccc(-c2nnc(Oc3ccc(F)cc3F)cc2-c2ccc(Cl)cc2)cc1`, the melting point is 163 to 164 °C.

The molecule `CC(=O)Nc1cc2c(cc1[N+](=O)[O-])OC(C)O2` (stereo not given) displayed a melting point of 112 to 113 °C.

For the molecule `OC(CNC1=NCCN1)c1ccc(F)cc1` (stereo not given), the melting point amounted to 153 °C.

On to `O=C(CCC1CCCCC1)C1=C(O)COC1=O`, for which the melting point lay within 75 to 78 °C.

In the case of `OCCCc1conc1-c1ccc(F)c(Br)c1`, the melting point lay in the range of 40 to 41 °C.

`Cc1ccc(S(=O)(=O)N2CCC[C@H]2C(=O)N[C@@H](CCC(N)=O)C(=O)O)cc1` (Tos-Pro-Gln-OH) returned a melting point of 45 to 55 °C.

`CCCCc1oc2ccccc2c1C(=O)c1nc(Br)c(-c2ccc(OC)cc2)o1` yielded a melting point of 62 to 64 °C.

In the case of `CC(C)c1cccc(N2CCN(c3cccc(C(=O)O)c3)C2=O)c1`, the melting point is 189 to 190 °C.

As for `CC(C)C(=O)N1CCC(C(CS(=O)(=O)c2ccc(Oc3ccc(OC(F)(F)F)cc3)cc2)N(O)C=O)CC1` (stereo not given), the melting point was 139 to 140 °C.

Molecule `COc1ccccc1[C@H](C)C(=O)O` registered a melting point of 102 °C.

As for `CCOC(=O)c1nnc(-c2ccccc2)cc1-c1cccc([N+](=O)[O-])c1`, the melting point fell in the range of 121 to 122 °C.

Take `CCN(CC)C(=O)c1ccc2cc(C(=O)O)ccc2c1`: the melting point was 122 to 124 °C.

Take `CNC(=O)NCCn1c(-c2ccc(CN3CCOCC3)c(C)c2)csc1=Nc1ccc(F)c(C)c1`: the melting point fell in the range of 139 to 140 °C.

`CCC1(CC)C=C(N2CCSC2=NC#N)c2cc(C#N)ccc2O1` showed a melting point of 251 to 252 °C.

`CO[C@@H](C(=O)N[C@H]1CC[C@@H](OC(=O)CCc2ccccc2)CNC1=O)[C@H](O)[C@@H](O)[C@H](O)/C=C/C(C)(C)C` had a melting point of 75 to 77 °C.

`Cc1ccc(NC(N)=S)c(-c2ccccc2)c1` yielded a melting point of 175 to 177 °C.

In the case of `CCOC(=O)C1CN(C(=O)c2cc(OC)c(OC)c(OC)c2)CCN1C(=O)C1=Cc2cc(OC)c(OC)cc2CCC1` (stereo not given), the melting point lay in the range of 108 to 110 °C.

The molecule `CCC(=O)c1cc(OCc2ccccc2)c(OC)cc1[N+](=O)[O-]` showed a melting point of 120 to 123 °C.

Turning to `O=C(O)CN(C(=O)CCCCl)c1csc2ccccc12`, the melting point fell in the range of 167 to 168 °C.

`NC(=O)c1sc2ncnc(-c3cccc(NC(=O)Cc4ccccc4)c3)c2c1N` registered a melting point of 255 to 258 °C.

The molecule `CCOCc1nc2c(N)nc3ccccc3c2n1NCCC(C)C` gave a melting point of 129 to 132 °C.

`O=C(COc1cccc2cccnc12)c1ccccc1` returned a melting point of 124 to 125 °C.

For `CCC1=NNC(C)=C(C(=O)OCc2ccccc2)C1c1cccc([N+](=O)[O-])c1` (stereo not given), the melting point is 154 °C.

Consider `O=C(Nc1ccc(-n2nc(C3CC3)cc2C2CC2)c(F)c1)c1cccc(F)c1F`, for which the melting point fell in the range of 132 to 135 °C.

Turning to `CC1=C(C(=O)OCCN2C(=O)c3ccccc3C2=O)C(c2cccc([N+](=O)[O-])c2)C(C(=O)OCCN2C(=O)c3ccccc3C2=O)=C(C)N1`, the melting point is 92 to 94 °C.

Take `CCOC(=O)c1cnc2c(cnn2Cc2ccncc2)c1O`: the melting point was found to be 140 °C.

Regarding `CCc1cc2c(C(=O)O)ccc(OC)c2o1`, the melting point lay in the range of 215 to 216 °C.

`Cn1ccc(CON2C(=O)c3ccccc3C2=O)n1` came in with a melting point of 122 to 124 °C.

`Cc1cc(C2=CC3(CC(C)(C)C2CO)SCCCS3)ccc1F` (stereo not given): the melting point lay within 128 to 129 °C.

The molecule `O=C(O)CC(=O)N(c1ccccc1)c1ccccc1` displayed a melting point of 126 to 127 °C.

Molecule `CCOc1nc2ccccc2nc1NC(=O)N1CCN(c2cc(Cl)cc(Cl)c2)CC1` came in with a melting point of 157 to 159 °C.

The molecule `Fc1ccc(-c2ccn(CC3CCNCC3)c2-c2ccncc2)cc1` gave a melting point of 174 to 176 °C.

Take `COc1ccc(N2CCN(Cc3n[nH]c4c(Cl)cccc34)CC2)cc1`: the melting point fell in the range of 190 to 191 °C.

Regarding `COc1cc2ncnc(N3CCc4ccc(-c5ccccc5)cc43)c2cc1OC`, the melting point lay within 175 to 177 °C.

`Clc1ccnc2cc3c(cc12)OCO3` registered a melting point of 130 to 132 °C.

As to `CCCCCC(CC(=O)Nc1cc(CBr)ccc1C(C)(C)C)c1cccc2c1OCO2` (stereo not given), the melting point fell in the range of 119 to 120 °C.

Regarding `COc1cn(-c2ccc(N3CC(F)(F)C3)cc2F)nc(-c2ccnn2-c2ccccc2)c1=O`, the melting point lay in the range of 204 to 206 °C.

In turn, `CS(=O)(=O)Nn1c(=O)[nH]c2cc(C(F)(F)F)c(C3CCCO3)cc2c1=O` (stereo not given) returned a melting point of 254 to 257 °C.

In the case of `CCC12CCC(=O)CC1CCc1cc(O)ccc12` (stereo not given), the melting point lay within 168 to 170 °C.

Molecule `CN(C(F)(F)C(F)F)S(=O)(=O)c1ccccc1S(N)(=O)=O` came in with a melting point of 102 to 107 °C.

`COc1cc(C(=O)NS(=O)(=O)c2ccccc2C)ccc1Cc1c(Cl)n(C)c2cc(Cl)c(CCNC(=O)N(C)C)cc12` yielded a melting point of 236 to 238 °C.

`Nc1nc(-c2cccc(F)c2)nc2nc(-c3ccco3)nn12` came in with a melting point of over 300 °C.

As to `C=C1CCc2[nH]c3c(c2C1=O)CCC3`, the melting point lay within 214 to 215 °C.

The molecule `O=Cc1cc2c3ccccc3ccc2c2sccc12` had a melting point of 162 °C.

Regarding `Fc1ccccc1N1CC2(CCNCC2)c2ccc(Cl)cc21`, the melting point lay in the range of 174 to 176 °C.

Take `COc1ccc2oc(Cc3cccc(C(F)(F)F)c3)c(CC#N)c2c1`: the melting point was found to be 116 °C.

`CCOC(=O)c1c(CN(C)c2ccccn2)nc2cc(OC)c(OC)cc2c1-c1ccc(OC)c(OC)c1` yielded a melting point of 174 to 175 °C.

For the molecule `CNC(=O)N(N)CC(C)O` (stereo not given), the melting point fell in the range of 99 to 101 °C.

The molecule `CCCCCCCCCCCCCCC(F)CC(NC(C)=O)(C(=O)OCC)C(=O)OCC` (stereo not given) displayed a melting point of 71 to 73 °C.

Regarding `CCCN(CCC)S(=O)(=O)c1cccc(C(=O)Nc2cccc([N+](=O)[O-])c2)c1`, the melting point lay within 126 to 128 °C.

As to `O=C(OCc1ccccc1)N1CCc2c([nH]c3ccccc23)C1c1ccc2c(c1)OCO2` (stereo not given), the melting point was 98 to 101 °C.

As for `CC(C)(C)n1nnc(Cc2ccc(CCC(=O)O)cc2)n1`, the melting point lay in the range of 139 to 141 °C.

In the case of `COc1ccc(COc2cccc3c2CN(C2CCC(=O)NC2=O)C3=O)cc1OC` (stereo not given), the melting point was 205 to 207 °C.

In the case of `COc1cccc(C=O)c1OCc1cccc2ccccc12`, the melting point is 98 to 99 °C.

Consider `CCN(CC)C(=O)C=Cc1ccc(-c2ccccc2)cc1`, for which the melting point was found to be 113 °C.

For the molecule `COc1ccc(-c2nnn(-c3ccc(F)cc3Cl)c2N)cc1`, the melting point was 136 to 141 °C.

As for `COC(=O)C1=C(NC(=O)NC2CCCCC2)CSC1`, the melting point lay in the range of 154 to 155 °C.

Molecule `CC(=O)Oc1ccc(C(=O)N2CCNC2=O)cc1OC(C)=O` returned a melting point of 154 to 156 °C.

`COc1ccc(C(=O)c2ccnn2Cc2ccccc2)c(Cl)c1Cl` yielded a melting point of 102 to 105 °C.

Consider `COC(=O)Cc1cc(N)n(-c2ccccn2)n1`, for which the melting point was in the range of 84 to 85 °C.

For `CCCOc1ccc(S(=O)(=O)C(C)(C)C)cc1C(N)=O`, the melting point was 215 to 218 °C.

Consider `Cc1ccc(S(=O)(=O)N(C)c2ccc(O)cc2)cc1[N+](=O)[O-]`, for which the melting point is 173 to 174 °C.

In the case of `CC(C)(CCCCCCNS(=O)(=O)c1ccc(Cl)cc1)C(=O)O`, the melting point was 95 to 96 °C.

In turn, `Cc1c(CCc2ccc3nc(N)oc3c2)nc2cc(CCl)ccn12` registered a melting point of over 300 °C.

`O=[N+]([O-])c1cnn2c(-c3ccco3)ccnc12` showed a melting point of 235 to 237 °C.

In the case of `Clc1cccc(-c2cnn(-c3ccccn3)c2)c1`, the melting point was 110 to 111 °C.

`Nc1c(Cl)cc2nc(O)c(O)nc2c1N` registered a melting point of over 300 °C.

For `Cc1oc(-c2ccccc2)nc1CCOc1ccc(NC(=O)C(=O)O)cc1`, the melting point lay in the range of 196 to 198 °C.

With `CC1=C(C)CCCCCC1`, the melting point was in the range of 63 to 64 °C.

Consider `COC(=O)c1cn2c(n1)COc1cc(C)ccc1-2`, for which the melting point lay in the range of 180 to 181 °C.

`Cc1ccc2ccccc2c1C(=O)/C=C/c1ncn(C(c2ccccc2)(c2ccccc2)c2ccccc2)c1C`: the melting point lay within 222 to 224 °C.

`CCCn1cc2c(C3C(=O)Nc4ccc(Br)cc43)nc(NCCc3cccnc3)nc2n1` (stereo not given) yielded a melting point of 294 to 297 °C.

In turn, `CCCCc1sc2ccc([N+](=O)[O-])cc2c1C(=O)c1ccc(O)cc1` yielded a melting point of 147 °C.

Molecule `O=C(C=Cc1cccnc1)NCCCCC1CCN(C(=O)N(c2ccccc2)c2ccccc2)CC1` registered a melting point of 132 to 134 °C.

For `CCCOCCOc1ccc(OCC(O)CNCCNc2cc(=O)n(C)c(=O)n2C)cc1` (stereo not given), the melting point is 125 °C.

In turn, `Nc1cc(N2CC(COCc3ccccc3)OC2=O)ccn1` (stereo not given) returned a melting point of 122 to 123 °C.

In the case of `CC1C2C(CON2C)CN1c1c(F)cc2c(=O)c(C(=O)O)cn(C3CC3)c2c1F` (stereo not given), the melting point fell in the range of 197 to 199 °C.
